Data as given in patent publication US20250042889A1, “3CLPRO PROTEASE INHIBITOR” (SHANGHAI QILU PHARMACEUTICAL RESEARCH AND DEVELOPMENT …, priority 2021, published 2025).

Columns and labels:
[1] = target: SARS-COV-2 3CLpro/Mpro protease (Severe acute respiratory syndrome coronavirus 2 (2019-nCoV) (SARS-CoV-2), UniProt P0DTD1); assay: Inhibitory effect on SARS-COV-2 3CLpro/Mpro protease by fluorescence resonance energy transfer; assay type: biochemical; details: activity intervals A-D, read-out: IC50 (nM), Inhibition on SARS-CoV-2 3CLpro/Mpro protease
in vivo = details: male, CD1, mouse; for AUC / Vd / clearance / Cmax: in vivo; for half-life: plasma
[2] = male, CD1, mouse, in vivo, po, 10 mg/kg

| Structure (SMILES) | IC50 [1] [nM] | further results |
| --- | --- | --- |
| CNc1cncc(C(=O)N2CCC[C@@H](Nc3c(C(=O)N4CCO[C@H](C)C4)cc(Br)cc3[N+](=O)[O-])C2)c1 [Example 35] | 10 to 50 | AUC (in vivo; iv, 1 mg/kg): 112 ng·h/mL; Vd (in vivo; iv, 1 mg/kg): 1.28 L/kg; clearance (in vivo; iv, 1 mg/kg): 9.12 mL/min/kg; AUC (in vivo; po, 10 mg/kg): 668 ng·h/mL; Cmax (in vivo; po, 10 mg/kg): 1020 ng/mL; half-life (in vivo; iv, 1 mg/kg): 8.1 min; F [2]: 60% |
| CNc1cncc(C(=O)N2CCC[C@@H](Nc3c(C(=O)N4CCCC(F)(F)C4)cc(Br)cc3[N+](=O)[O-])C2)c1 [Example 36, (R)-(5-bromo-2-((1-(5-(methylamino)nicotinoyl)piperidin-3-yl)amino)-3-nitrophenyl)(3,3-difluoropiperidin-1-yl)methanone] | 10 to 50 | AUC (in vivo; iv, 1 mg/kg): 92 ng·h/mL; Vd (in vivo; iv, 1 mg/kg): 1.7 L/kg; clearance (in vivo; iv, 1 mg/kg): 11.2 mL/min/kg; AUC (in vivo; po, 10 mg/kg): 273 ng·h/mL; Cmax (in vivo; po, 10 mg/kg): 365 ng/mL; half-life (in vivo; iv, 1 mg/kg): 8.16 min; F [2]: 29.7% |
| CNc1cncc(C(=O)N2C[C@H](Nc3c(C(=O)N4C[C@@H](C)O[C@@H](C)C4)cc(Br)cc3[N+](=O)[O-])C[C@H]2C(=O)Nc2cc(C(F)(F)F)ncn2)c1 [Example 436, (2S,4R)-4-((4-bromo-2-((2R,6S)-2,6-dimethylmorpholin-4-carbonyl)-6-nitrophenyl)amino)-1-(5-(methylamino)nicotinoyl)-N-(6-(trifluoromethyl)pyrimidin-4-yl) pyrrolidine-2-formamide] | 50 to 100 | – |
| CNc1cncc(C(=O)N2C[C@H](Nc3c(C(=O)N4C[C@@H](C)O[C@@H](C)C4)cc(Br)cc3[N+](=O)[O-])C[C@H]2C(=O)N[C@H]2CC(=O)N(C)C2)c1 [Example 437] | 50 to 100 | – |
| CNc1cncc(C(=O)N2C[C@H](Nc3c(C(=O)N4C[C@@H](C)O[C@@H](C)C4)cc(Br)cc3[N+](=O)[O-])C[C@H]2C(=O)Nc2nn(C3C[C@@H](C)O[C@@H](C)C3)cc2Br)c1 (stereo partly drawn) [Example 438] | 10 to 50 | – |
| CO[C@H]1CN(C(=O)c2cncc3[nH]nc(C)c23)C[C@@H]1Nc1c(C(=O)N2C[C@@H](C)O[C@@H](C)C2)cc(Br)cc1[N+](=O)[O-] [Example 439, (5-Bromo-2-(((3S,4S)-4-methoxy-1-(3-methyl-1H-pyrazolo[3,4-c]pyridin-4-carbonyl)pyrrolidin-3-yl)amino)-3-nitrophenyl)((2S,6R)-2,6-dimethylmorpholinyl)methanone] | 10 to 50 | – |
| CNc1cncc(C(=O)N2C[C@H](Nc3c(-c4nnn(C)n4)cc(Br)cc3[N+](=O)[O-])[C@@H](OC)C2)c1 [Example 440, ((3S,4S)-3-((4-bromo-2-(2-methyl-2H-tetrazol-5-yl)-6-nitrophenyl)amino)-4-methoxypyrrolidin-1-yl)(5-(methylamino)pyridin-3-yl)methanone] | 50 to 100 | – |
| CNc1cncc(C(=O)N2C[C@H](Nc3c(C(=O)N4C[C@@H](C)O[C@@H](C)C4)cc(Br)cc3[N+](=O)[O-])C[C@H]2C(=O)Nc2cc(Cl)ncn2)c1 [Example 441, (2S,4R)-4-((4-bromo-2-((2R,6S)-2,6-dimethylmorpholin-4-carbonyl)-6-nitrophenyl)amino)-N-(6-chloropyrimidin-4-yl)-1-(5-(methylamino)nicotinoyl) pyrrolidine-2-formamide] | 10 to 50 | – |
| CNc1cncc(C(=O)N2C[C@H](Nc3c(C(=O)N4C[C@@H](C)O[C@@H](C)C4)cc(Br)cc3[N+](=O)[O-])C[C@H]2C(=O)Nc2ccnc(Cl)n2)c1 [Example 442, (2S,4R)-4-((4-bromo-2-((2R,6S)-2,6-dimethylmorpholin-4-carbonyl)-6-nitrophenyl)amino)-N-(2-chloropyrimidin-4-yl)-1-(5-(methylamino)nicotinoyl) pyrrolidine-2-formamide] | 10 to 50 | – |
| [2H]C([2H])([2H])Nc1cncc(C(=O)N2C[C@H](Nc3c(C(=O)N4C[C@@H](C)O[C@@H](C)C4)cc(Br)cc3[N+](=O)[O-])[C@@H](OC)C2)c1 [Example 443] | 10 to 50 | – |
| CO[C@H]1CN(C(=O)c2cncc3[nH]nc(Cl)c23)C[C@@H]1Nc1c(C(=O)N2C[C@@H](C)O[C@@H](C)C2)cc(Br)cc1[N+](=O)[O-] [Example 444, (5-Bromo-2-(((3S,4S)-1-(3-chloro-1H-pyrazolo[3,4-c]pyridin-4-carbonyl)-4-methoxypyrrolidin-3-yl)amino)-3-nitrophenyl)((2S,6R)-2,6-dimethylmorpholinyl)methanone] | 10 to 50 | – |
| CNc1cncc(C(=O)N2C[C@H](Nc3c(C(=O)N4C[C@@H](C)O[C@@H](C)C4)cc(Br)cc3[N+](=O)[O-])C[C@H]2C(=O)Nc2ncc(Br)cn2)c1 [Example 445, (2S,4R)-4-((4-bromo-2-((2R,6S)-2,6-dimethylmorpholin-4-carbonyl)-6-nitrophenyl)amino)-N-(5-bromopyrimidin-2-yl)-1-(5-(methylamino)nicotinoyl) pyrrolidine-2-formamide] | 50 to 100 | – |
| CNc1cncc(C(=O)N2C[C@H](Nc3c(C(=O)N4C[C@@H](C)O[C@@H](C)C4)cc(Br)cc3[N+](=O)[O-])C[C@@H](OCCOC)C2)c1 [Example 446] | 10 to 50 | – |
| CNc1cncc(C(=O)N2C[C@H](Nc3c(C(=O)N4C[C@@H](C)O[C@@H](C)C4)cc(Br)cc3[N+](=O)[O-])C[C@H]2COC)c1 [Example 447] | 50 to 100 | – |
| CNc1cncc(C(=O)N2C[C@H](Nc3c(C(=O)N4C[C@@H](C)O[C@@H](C)C4)cc(Br)cc3[N+](=O)[O-])C[C@@H](O[C@@H]3CCOC3)C2)c1 [Example 448] | 10 to 50 | – |
| CO[C@H]1CN(C(=O)c2cncc3[nH]c(C)nc23)C[C@@H]1Nc1c(C(=O)N2C[C@@H](C)O[C@@H](C)C2)cc(Br)cc1[N+](=O)[O-] [Example 449, (5-Bromo-2-(((3S,4S)-4-methoxy-1-(2-methyl-3H-imidazol[4,5-c]pyridin-7-carbonyl)pyrrolidin-3-yl)amino)-3-nitrophenyl)((2S,6R)-2,6-dimethylmorpholinyl)methanone] | 50 to 100 | – |
| CNc1cncc(C(=O)N2C[C@H](Nc3c(C(=O)N4C[C@@H](C)O[C@@H](C)C4)cc(Br)cc3[N+](=O)[O-])C[C@H]2C(=O)NCc2ccnc(C(F)(F)F)n2)c1 [Example 450, (2S,4R)-4-((4-bromo-2-((2R,6S)-2,6-dimethylmorpholin-4-carbonyl)-6-nitrophenyl)amino)-1-(5-(methylamino)nicotinoyl)-N-((2-(trifluoromethyl)pyrimidin-4-yl)methyl) pyrrolidine-2-formamide] | 10 to 50 | – |
| [2H]C([2H])([2H])Nc1cncc(C(=O)N2C[C@H](Nc3c(C(=O)N4C[C@@H](C)O[C@@H](C)C4)cc(Br)cc3[N+](=O)[O-])[C@@H](OC([2H])([2H])[2H])C2)c1 [Example 451] | 10 to 50 | – |
| CNc1cncc(C(=O)N2C[C@H](Nc3c(C(=O)N4C[C@@H](C)O[C@@H](C)C4)cc(Br)cc3[N+](=O)[O-])C[C@@H](O[C@H]3CCOC3)C2)c1 [Example 452, (5-Bromo-2-(((3R,5R)-1-(5-(methylamino)nicotinoyl)-5-((S)-tetrahydrofuran-3-yl)oxy)piperidin-3-amino)-3-nitrophenyl)((2S,6R)-2,6-dimethylmorpholinyl)methanone] | 50 to 100 | – |
| CO[C@H]1CN(C(=O)c2cncc3[nH]nnc23)C[C@@H]1Nc1c(C(=O)N2C[C@@H](C)O[C@@H](C)C2)cc(Br)cc1[N+](=O)[O-] [Example 454, (5-Bromo-2-(((3S,4S)-4-methoxy-1-(2-methyl-3H-1,2,3-triazole[4,5-c]pyridin-7-carbonyl)pyrrolidin-3-yl)amino)-3-nitrophenyl)((2S,6R)-2,6-dimethylmorpholinyl)methanone] | 10 to 50 | – |
| CNc1cncc(C(=O)N2C[C@H](Nc3c(C(=O)N4C[C@@H](C)O[C@@H](C)C4)cc(Br)cc3[N+](=O)[O-])[C@@H](OCc3ccccc3)C2)c1 [Example 455] | 10 to 50 | – |
| CNc1cncc(C(=O)N2C[C@H](Nc3c(C(=O)N4C[C@@H](C)O[C@@H](C)C4)cc(Br)cc3[N+](=O)[O-])[C@@H](OCc3ccc(OC)nc3)C2)c1 [Example 456, (5-Bromo-2-(((3S,4S)-4-((6-methoxypyridin-3-yl)methoxy)-1-(5-methylamino)nicotinoyl)pyrrolidin-3-amino)-3-nitrophenyl)((2S,6R)-2,6-dimethylmorpholinyl)methanone] | 10 to 50 | – |
| CNc1cncc(C(=O)N2C[C@H](Nc3c(C(=O)N4C[C@@H](C)O[C@@H](C)C4)cc(Br)cc3[N+](=O)[O-])[C@@H](OCc3ccc(C(F)(F)F)nc3)C2)c1 [Example 457, (5-Bromo-2-((3S,4S)-1-(5-(methylamino)nicotinoyl)-4-((6-(trifluoromethyl)pyridin-3-yl)methoxy)pyrrolidin-3-amino)-3-nitrophenyl)((2S,6R)-2,6-dimethylmorpholinyl)methanone] | 100 to 200 | – |
| CNc1cncc(C(=O)N2C[C@H](Nc3c(C(=O)N4C[C@@H](C)O[C@@H](C)C4)cc(Br)cc3[N+](=O)[O-])[C@@H](OCc3ccccn3)C2)c1 [Example 458] | 10 to 50 | – |
| CNc1cncc(C(=O)N2C[C@H](Nc3c(C(=O)N4C[C@@H](C)O[C@@H](C)C4)cc(Br)cc3[N+](=O)[O-])[C@@H](OCc3ccc(F)cn3)C2)c1 [Example 459] | 10 to 50 | – |
| CNc1cncc(C(=O)N2C[C@H](Nc3c(C(=O)N4C[C@@H](C)O[C@@H](C)C4)cc(Br)cc3[N+](=O)[O-])[C@@H](OCc3ncco3)C2)c1 [Example 460] | 10 to 50 | – |
| CNc1cncc(C(=O)N2C[C@H](Nc3c(C(=O)N4C[C@@H](C)O[C@@H](C)C4)cc(Br)cc3[N+](=O)[O-])[C@@H](OCc3nccs3)C2)c1 [Example 461] | 10 to 50 | – |
| CNc1cncc(C(=O)N2C[C@H](Nc3c(C(=O)N4C[C@@H](C)O[C@@H](C)C4)cc(Br)cc3[N+](=O)[O-])[C@@H](OCc3cncn3C)C2)c1 [Example 462, (5-Bromo-2-(((3S,4S)-4-((1-methyl-1H-imidazol-5-yl)methoxy)-1-(5-(methylamino)nicotinoyl)pyrrolidin-3-yl)amino)-3-nitrophenyl)((2S,6R)-2,6-dimethylmorpholinyl)methanone] | 10 to 50 | – |
